For one assay, the target named is T1, 5-HT1A (Homo sapiens, UniProt P08908).
T1 construct: NIMH Psychoactive Drug Screening Program (PDSP)
Nature of the assay: PDSP binding assay, 5-HT1A. Conditions: Table S2, single determination. The text has this: (§1) Table S2. Off-target screening (to replace table later). We thank Dr. Bryan L. Roth (Univ. North Carolina at Chapel Hill) and National Institute of Mental Health's Psychoactive Drug Screening Program (Contract # HHSN-271-2008-00025-C) for screening data. Reference: Besnard et al.
(§2) Procedures: https://pdsp.unc.edu/pdspweb/content/UNC-CH%20Protocol%20Book.pdf […]
(§3) nucleosides were found at the following sites (human unless noted): 5HT1A, 5HT1B, 5HT1D, […]
(§4) β3, BZP rat brain site, D1, D2, D3, D4, D5, GABAA, H1, H2, H3, H4, M1, M2, M5, δ-opioid receptor (DOR), κ-opioid receptor (KOR), μ-opioid receptor (MOR), σ1, σ2, DAT, NET, SERT. Ki values […]
(§5) Compound # PDSP # Receptor LogKi Ki (nM)

In another assay the target is T2, hP2Y6R (Homo sapiens, UniProt Q15077).
T2 construct: expressed in transfected cells
Nature of the assay: UDP (100 nM)-induced Ca2+ mobilization in hP2Y6R stably transfected 1321N1 astrocytoma cells. It counts as cell-based. As to the method:
To screen for P2Y6R antagonist activity, PLC-mediated calcium mobilization assays were carried out using the recombinant human P2Y6R stably expressed in 1321N1 astrocytoma cells (hP2Y6R-1321N1) according to the previously published method. Briefly, the hP2Y6R-1321N1 cells were seeded on 96-well black plates and incubated overnight. The antagonists were pretreated along with the FLIPR dye (Calcium 6 assay kit, Molecular Devices, San Jose, CA, USA) containing 5 mM probenecid for 45 min, prior to agonist addition followed by an immediate intracellular Ca^2+ measurement. […] Here, probenecid was used as an organic anion transporter inhibitor to prevent the efflux of the dye into the extracellular environment. During incubation, the membrane permeable dye enters the cytoplasm and cleaves the acetoxymethyl protection to enable Ca^2+ binding. When the P2Y6R was activated by UDP, the increased calcium concentration was directly measured by intracellular changes in the fluorescence intensity with a Fluorescent Imaging Plate Reader (FLIPR^TETRA, Molecular Devices, San Jose, CA, USA).
A general note: Calcium flux is commonly read through the fluorescence of an indicator in the cells.

Assay [1] deals with 45 target sites (receptors, channels, and transporters). Nature of the assay: PDSP off-target binding screen at 45 target sites. More on the design: species or system human. The settings on record: PDSP binding assays.
Source text: as §1, §2, §3, §4, §5

For a further assay, the target named is T3, SERT (Homo sapiens, UniProt P31645).
T3 construct: NIMH Psychoactive Drug Screening Program (PDSP)
Nature of the assay: PDSP binding assay, SERT. Conditions: Table S2, single determination.
Source text: as §1, §2, §3, §4, §5

The structures appear in SMILES notation.

T2 sequence (Q15077 whole entry): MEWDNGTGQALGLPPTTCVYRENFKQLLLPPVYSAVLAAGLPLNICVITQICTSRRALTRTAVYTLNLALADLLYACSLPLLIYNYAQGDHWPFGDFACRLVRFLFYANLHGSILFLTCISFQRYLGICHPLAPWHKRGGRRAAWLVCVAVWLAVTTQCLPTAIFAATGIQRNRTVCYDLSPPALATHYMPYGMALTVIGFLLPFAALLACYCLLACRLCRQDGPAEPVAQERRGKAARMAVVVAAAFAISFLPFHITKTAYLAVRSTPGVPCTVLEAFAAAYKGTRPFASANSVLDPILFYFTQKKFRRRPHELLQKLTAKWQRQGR
T3 sequence (P31645 whole entry): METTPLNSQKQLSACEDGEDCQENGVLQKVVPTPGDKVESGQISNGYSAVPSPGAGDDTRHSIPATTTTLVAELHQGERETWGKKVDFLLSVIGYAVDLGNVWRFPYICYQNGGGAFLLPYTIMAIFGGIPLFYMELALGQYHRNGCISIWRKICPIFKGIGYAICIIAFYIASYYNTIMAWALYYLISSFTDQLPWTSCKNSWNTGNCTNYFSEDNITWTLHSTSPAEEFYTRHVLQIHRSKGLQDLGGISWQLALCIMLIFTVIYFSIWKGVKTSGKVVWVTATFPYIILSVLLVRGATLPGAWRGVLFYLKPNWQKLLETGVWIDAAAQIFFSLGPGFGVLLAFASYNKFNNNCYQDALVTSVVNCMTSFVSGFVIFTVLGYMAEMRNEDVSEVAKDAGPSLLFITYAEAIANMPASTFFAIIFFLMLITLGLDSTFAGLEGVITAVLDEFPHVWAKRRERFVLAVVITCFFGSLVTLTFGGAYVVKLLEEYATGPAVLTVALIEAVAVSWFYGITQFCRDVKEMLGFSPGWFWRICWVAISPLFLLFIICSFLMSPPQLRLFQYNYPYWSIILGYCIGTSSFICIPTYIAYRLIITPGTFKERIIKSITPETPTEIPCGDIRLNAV
T1 sequence (P08908 whole entry): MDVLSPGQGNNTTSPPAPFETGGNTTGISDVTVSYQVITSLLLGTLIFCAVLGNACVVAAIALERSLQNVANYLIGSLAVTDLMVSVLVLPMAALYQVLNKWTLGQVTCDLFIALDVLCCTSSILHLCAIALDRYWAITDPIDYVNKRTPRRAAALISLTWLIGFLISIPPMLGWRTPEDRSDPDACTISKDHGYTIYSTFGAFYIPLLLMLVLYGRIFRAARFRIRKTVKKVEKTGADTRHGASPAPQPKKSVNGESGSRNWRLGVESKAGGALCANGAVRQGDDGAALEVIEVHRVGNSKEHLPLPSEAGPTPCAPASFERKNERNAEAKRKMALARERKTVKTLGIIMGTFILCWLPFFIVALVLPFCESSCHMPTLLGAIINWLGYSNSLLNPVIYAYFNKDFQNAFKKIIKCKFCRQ

In general, Ki refers to a measure of affinity in units of concentration, obtained from inhibition or displacement. Lower therefore signals higher affinity. Broadly, the IC50 is the concentration that gives 50% inhibition. For the compound `CC(C)(C)OC(=O)NCCCCCCCC#Cc1ccc2c(c1)C=C([N+](=O)[O-])C(C(F)(F)F)O2` (centres unmarked) [Compound 30, tert-Butyl (9-(3-nitro-2-(trifluoromethyl)-2H-chromen-6-yl)non-8-yn-1-yl)carbamate], the inhibition constant (Ki) at 5-HT1A and on SERT was > 10000 nM throughout. Moreover, at hP2Y6R (UDP 100 nM, 3–4 independent triplicate determinations, read-out: IC50, hP2Y6R (Mean ± SEM)), the half-maximal inhibitory concentration (IC50) came out at 0.162 ± 0.013 µM. The “fold greater affinity than the corresponding pivaloyl derivative” value at hP2Y6R (hP2Y6R IC50 ratio) was determined as 107 fold. For the same compound, the “off-target interactions at 45 target sites” value in assay [1] is listed as “seven off-target interactions”.

The values above are taken from paper PMC11352859, “Functionalized Congeners of 2H-Chromene P2Y6 Receptor Antagonists” (Cells, 2024).
